Experimental data reported in patent publication US20200147028A1, “TREATMENT OF RESPIRATORY INFECTION WITH A TLR2 AGONIST” (Ena Therapeutics Pty Ltd, priority 2017, published 2020).
“Also recorded” adds a separate entry of the source. Where two headings read alike, the source gives them in different places. No end group written: not given here.

Legend:
[1] = assay type: in vivo, BALB/c mice; conditions: 2 pmol INNA-006 day −7 or day −7 & −1; FP 1 hour before RV1B
Text: Each group contained 8 mice.

TNF-α = assay: Mouse RV1B infection with fluticasone propionate: TNF-α in BAL by ELISA; assay type: in vivo, BALB/c mice; conditions: FP treatment
[2] = system: Rhinovirus serotype 1B (RV1B); assay: Mouse RV1B infection with fluticasone propionate: lung viral RNA by qPCR; conditions: FP 1 hour before RV1B in Saline control mice
CXCL1 = assay: Mouse RV1B infection model: CXCL1 in BAL by ELISA
Protocol: (§1) Remaining lung lobes we snap frozen in liquid nitrogen, homogenised in 600 μl PBS containing protease inhibitors (Roche) by TissueLyser II run twice at 30 Hz for 4 minutes. Cell debris was pelleted by centrifugation, samples were diluted 1:2 with PBS and stored at −80° C. BAL fluid was then analysed for production of KC/IL-8 (CXCL1) and TNF-α by Duoset ELISA (R&D Systems) as per manufacturer's instructions.

[3] = parameters: species or system BALB/c mice; conditions: mouse, in vivo
Text: Each group contained 5 mice.

BAL inflammatory cells = assay: Mouse RV1B infection model: BAL cell analysis
Protocol: Following sacrifice, mice were tracheally cannulated and 1 ml of Hanks buffered saline solution (Hyclone™, GE Life Sciences) flushed through the airways, 3-5 times. BAL cells were pelleted by centrifugation and supernatant was collected and stored at −80° C. for ELISAs. The pelleted cells were red blood cells lysed and the remaining cells were counted on a heamocytometer by trypan blue exclusion. Cell suspensions were then cytocentrifuged onto slides and fixed and stained with Diff Quick (POCD) solutions as per manufacturer's recommendations. A minimum of 200 total cells were counted per slide and numbers of neutrophils, lymphocytes, and macrophages were determined.

TNFα = assay: Mouse RV1B infection model: TNFα in BAL by ELISA
Protocol: as §1

[4] = system: Rhinovirus serotype 1B (RV1B); assay: Mouse RV1B infection model: lung viral RNA by qPCR; conditions: for reduction of RV infection (lung RV copy number): Study 1E: 10 pmol day −7; for RV copy number in lung: Study 1E: every dose 1-10 pmol day −7; for lung viral load: day +1
TLR-2 = TLR-2 (Homo sapiens, UniProt O60603); assay: NF-κB luciferase reporter in HEK293T cells transfected with human TLR2; assay type: cell-based; parameters: expressed in transfected cells; host or cells: HEK293T; conditions: dose range 12.2 pM to 3.125 pM, FIG. 20
Protocol: Comparison of the abilities of various compounds to stimulate luciferase activity in an NF-κB cell-based reporter system was determined. Compounds tested include INNA-006 (or compound (1)); INNA-013 (or compound (4)); INNA-014 (or compound (3)); INNA-015 (or compound (2)); INNA-010; INNA-011 (or compound (5)); INNA-012 (or compound (6)); and INNA-009. HEK293T cells, transiently co-transfected with a human TLR2 plasmid and a luciferase-NF-κB plasmid reporter system, were exposed to various dilutions of each compound. Successful receptor binding and subsequent signal transduction events were determined by measuring the luminescence due to luciferase activity (results shown in FIG. 19—left to right columns for each concentration are in the following order INNA-006 (or compound (1)); INNA-013 (or compound (4)); INNA-014 (or compound (3)); INNA-015 (or compound (2)); INNA-010; INNA-011 (or compound (5)); INNA-012 (or compound (6)); and INNA-009.
Comparison of the in vitro TLR2 agonistic activity of Pam3Cys-Ser-PEG3000 and INNA-006: HEK293T cells, transiently co-transfected with a human TLR2 plasmid and a luciferase-NF-κB plasmid reporter system, were exposed to various dilutions of INNA-006 or Pam3Cys-Ser-PEG3000.
Successful receptor binding and subsequent signal transduction events were determined by measuring the luminescence due to luciferase activity (FIG. 20).

[5] = Study 1G: lowest doses (2 pmole and 1 pmole) day +1, listed as Peg-SS-Pam2Cys

Chain of TLR-2 (O60603 21-784): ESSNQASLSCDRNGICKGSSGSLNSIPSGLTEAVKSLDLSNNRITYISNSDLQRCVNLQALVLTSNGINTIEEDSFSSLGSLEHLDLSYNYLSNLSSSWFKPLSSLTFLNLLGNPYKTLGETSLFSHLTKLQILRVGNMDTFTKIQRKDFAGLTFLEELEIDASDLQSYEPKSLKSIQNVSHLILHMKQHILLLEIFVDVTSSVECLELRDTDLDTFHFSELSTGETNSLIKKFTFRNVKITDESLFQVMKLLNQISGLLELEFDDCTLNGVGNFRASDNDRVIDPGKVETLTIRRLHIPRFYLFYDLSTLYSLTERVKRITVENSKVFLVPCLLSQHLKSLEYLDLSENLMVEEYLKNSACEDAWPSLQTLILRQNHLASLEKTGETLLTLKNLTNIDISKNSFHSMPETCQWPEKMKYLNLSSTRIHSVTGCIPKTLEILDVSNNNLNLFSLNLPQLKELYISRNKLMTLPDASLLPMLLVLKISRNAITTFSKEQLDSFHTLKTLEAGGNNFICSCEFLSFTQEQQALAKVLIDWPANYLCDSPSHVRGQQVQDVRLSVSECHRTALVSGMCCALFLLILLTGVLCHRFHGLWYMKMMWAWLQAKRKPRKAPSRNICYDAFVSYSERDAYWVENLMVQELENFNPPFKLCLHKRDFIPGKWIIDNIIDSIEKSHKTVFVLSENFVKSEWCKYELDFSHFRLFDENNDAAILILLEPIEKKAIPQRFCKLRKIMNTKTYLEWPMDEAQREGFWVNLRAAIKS
Chain of TLR-2 (Q15399 25-786 partner): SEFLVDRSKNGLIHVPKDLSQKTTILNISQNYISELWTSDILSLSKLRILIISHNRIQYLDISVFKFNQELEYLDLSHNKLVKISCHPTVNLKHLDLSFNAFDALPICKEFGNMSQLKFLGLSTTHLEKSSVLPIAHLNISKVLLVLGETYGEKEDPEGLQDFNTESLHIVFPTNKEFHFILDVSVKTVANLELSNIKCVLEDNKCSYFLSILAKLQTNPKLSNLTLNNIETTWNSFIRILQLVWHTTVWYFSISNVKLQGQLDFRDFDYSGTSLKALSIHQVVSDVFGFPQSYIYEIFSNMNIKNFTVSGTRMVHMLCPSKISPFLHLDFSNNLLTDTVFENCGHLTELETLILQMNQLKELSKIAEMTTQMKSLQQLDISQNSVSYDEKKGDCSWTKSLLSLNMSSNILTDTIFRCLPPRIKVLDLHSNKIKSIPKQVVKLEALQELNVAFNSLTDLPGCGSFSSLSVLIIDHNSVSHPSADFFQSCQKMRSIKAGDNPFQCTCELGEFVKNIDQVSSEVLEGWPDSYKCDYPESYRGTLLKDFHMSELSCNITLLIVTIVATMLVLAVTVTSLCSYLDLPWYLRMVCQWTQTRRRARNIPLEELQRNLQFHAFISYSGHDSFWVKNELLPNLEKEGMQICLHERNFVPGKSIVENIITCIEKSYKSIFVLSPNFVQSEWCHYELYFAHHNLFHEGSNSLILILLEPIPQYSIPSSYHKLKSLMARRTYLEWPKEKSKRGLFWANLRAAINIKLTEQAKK

CCC(=O)O[C@]1(C(=O)SCF)[C@H](C)C[C@H]2[C@@H]3C[C@H](F)C4=CC(=O)C=C[C@]4(C)[C@@]3(F)[C@@H](O)C[C@@]21C [FP, fluticasone propionate, reference compound]
weight loss [1]: no significant weight loss
TNF-α production stimulated by INNA-006 (TNF-α): reduced TNF-α production stimulated by INNA-006
viral lung load [2]: Viral lung load was increased; also recorded: increased viral lung load in Saline control mice only

Pam2Cys-SS-PEG [INNA-003]
CXCL1 in BAL (CXCL1; Study 1E: every dose (1-10 pmol) day −7): effectively reduced CXCL1 levels
CXCL1 in BAL (CXCL1; Study 1F: 2 pmol day −1, RV1B, listed as Peg-SS-Pam2Cys): CXCL1 production was only increased; also recorded: significantly increased in mice treated one day prior to infection
CXCL1 / lung inflammation after day −1 dose with prior day −7 dose (CXCL1; Study 1F: 2 pmol day −7 and day −1, listed as Peg-SS-Pam2Cys): protected from lung inflammation; also recorded: completely abolished
CXCL1 in BAL (CXCL1; Study 1G: 10-1 pmol day +1): dose dependent upon drug treatment
CXCL1 (KC) in BAL (CXCL1; [5]): not increased by the lowest doses; also recorded: no significant increase in KC or TNFα
weight loss [3]: weight loss at the higher doses
weight loss after second dose [3]: no weight loss observed
RV-induced BAL neutrophilic inflammation (BAL inflammatory cells; Study 1E: day −7, day 2 p.i.): significantly reduced neutrophilic inflammation
inflammatory potency, Peg-SS-Pam2Cys versus Peg-S-Pam2Cys (BAL inflammatory cells; Study 1F): Peg-SS-Pam2Cys more inflammatory
BAL neutrophils (BAL inflammatory cells; Study 1F: 2 pmol, 1 day prior to RV or mock infection): only significantly increased in mice with Peg-SS-Pam2Cys treatment 1 day prior to RV or mock infection
BAL lymphocytes (BAL inflammatory cells; Study 1F: 2 pmol, day −7, day −1 or both): induced by Peg-SS-Pam2Cys at all treatment times (except day −7 treatment with RV1B infection)
total BAL leukocytes in RV1B infected mice (BAL inflammatory cells; Study 1F: 2 pmol, vs Saline RV): did not induce significantly higher leukocyte recruitment
total BAL leukocytes in mock infected mice (BAL inflammatory cells; Study 1F: 2 pmol, vs Saline mock): Total leukocytes were increased
neutrophilic response in uninfected mice (BAL inflammatory cells; Study 1F: three days after dosing (d-1 groups)): there was a neutrophilic response to Peg-SS-Pam2Cys
BAL lymphocytes (BAL inflammatory cells; Study 1G: day +1 treatment): no changes to lymphocyte numbers
BAL macrophages (BAL inflammatory cells; Study 1G: day +1 treatment): significantly reducing macrophage numbers
total BAL leucocyte numbers (BAL inflammatory cells; Study 1G: day +1 treatment): no significant differences
BAL neutrophils (BAL inflammatory cells; Study 1G: day +1 treatment, listed as Peg-SS-Pam2Cys): drastically increases neutrophil numbers in BAL; also recorded: increasing neutrophil recruitment
TNF-α in BAL (TNFα; Study 1E: day −7, listed as Peg-SS-Pam2Cys): not increased by any of the compounds; also recorded: lack of induction of TNFα
TNF-α in BAL (TNFα; Study 1F: 2 pmol, all groups): did not induce TNF-α in any of the groups
TNF-α in BAL (TNFα; Study 1G: 10-1 pmol day +1): dose dependent upon drug treatment
TNF-α in BAL (TNFα; [5]): not increased by the lowest doses; also recorded: no significant increase in KC or TNFα
reduction of RV infection (lung RV copy number) [4]: 84.82%
anti-viral efficacy relative to Pam2CysSK4 ([4]; Study 1E: 10 pmol dose day −7, listed as Peg-SS-Pam2Cys): better anti-viral efficacy compared to Pam2CysSK4
RV copy number in lung ([4]; day 2 p.i.): significant reduction in RV infection
reduced viral RNA ([4]; Study 1F: single treatment at day −7): 70%
reduction in viral RNA ([4]; Study 1F: treatment at both days −7 and −1): approx. 90%
RV copy numbers in lung ([4]; Study 1G: 10, 5, 2, 1 pmol 1 day post-infection, day 2 p.i.): reduces RV1B copy numbers in the lung
lung viral load ([4]; Study 1G: doses 5 pmole per mouse and lower): significant reduction in lung viral load
lung viral load ([4]; Study 1G: highest dose 10 pmole per mouse): less effective

Pam2Cys-Ser-Lys-Lys-Lys-Lys (C(dipalmitoyl‑S‑glyceryl)SKKKK) [INNA-005, reference compound]
CXCL1 in BAL (CXCL1; Study 1E: 10 pmol and 5 pmol dose day −7): effectively reduced CXCL1 levels
TNF-α in BAL (TNFα; Study 1E: day −7): not increased by any of the compounds
reduction in lung viral load ([4]; Study 1E, day −7 (discussion)): 50%
reduction of RV infection (lung RV copy number) [4]: 58%
RV copy number in lung ([4]; day 2 p.i.): significant reduction in RV infection

Pam3Cys-Ser-PEG3000
ability to signal NF-κB (luciferase), versus INNA-006 (TLR-2): inferior to INNA-006
